Our source for the EC50 values is patent US12350270B2, “Antimalarial agents” (Merck Sharp & Dohme LLC, priority 2019, dated 2025).

Each structure is given as a SMILES string.

One assay concerns parasites (ring stage, in human red blood cell culture). In words: Parasite LDH growth assay (antiparasite potency, Parasite Assay). Format: cell-based, Plasmodium falciparum. The note with it: 0.7% rings, 2% haematocrit, 72 hours at 37° C., LDH readout of parasite growth. A digest of the protocol:
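Ring-stage parasites at 0.7% parasitemia and 2% haematocrit, in RPMI-Hepes/bicarbonate with 5% heat-inactivated human serum and 0.5% albumax, were added to compound-containing medium. Cultures grew 72 h at 37 °C in gassed humidified boxes. Plates were then frozen overnight at −80 °C, thawed 4 h, and growth was measured by LDH assay.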
By EC50 is commonly meant the concentration at which the effect is half-maximal. `CCC1(CC)CC(=O)N([C@@H]2CCOc3ccc(C(=O)NC4c5c(OC)cccc5OCC4(C)O)cc32)C(=N)N1` (single isomer, unassigned) [Example 259A] had an EC50 of 5.5 nM.
On the same count and under the same terms, with `CCC1(CC)CC(=O)N([C@@H]2CCOc3ccc(C(=O)NC4c5ccccc5OC4(C)C)cc32)C(=N)N1` (single isomer, unassigned) [Example 133B] the figure was 17 nM.
Still for that read-out and setting: in the case of `CCC1(CC)CC(=O)N([C@@H]2CCOc3ccc(C(=O)NC4c5ccccc5OCC4O)cc32)C(=N)N1` (single isomer, unassigned) [Example 8C] it was 120 nM.
As to `CCC1(CC)CC(=O)N([C@H]2c3cc(C(=O)N[C@@H]4c5ccccc5C[C@H]4O)ccc3OC[C@@H]2OC)C(=N)N1` [Example 69A, (3R,4S)-4-(4,4-diethyl-2-imino-6-oxotetrahydropyrimidin-1(2H)-yl)-N-((1R,2R)-2-hydroxy-2,3-dihydro-1H-inden-1-yl)-3-methoxychromane-6-carboxamide], a half-maximal response (EC50) required 2.6 nM.
The same measure, in the same setting: in the case of `CCC1(CC)CC(=O)N([C@H]2c3cc(C(=O)NC4c5ccccc5CC4(C)O)ccc3OC2(C)COC)C(=N)N1` (stereo partly drawn) [Example 77B, (2S,3S)-3-(4,4-diethyl-2-imino-6-oxotetrahydropyrimidin-1(2H)-yl)-N-(2-hydroxy-2-methyl-2,3-dihydro-1H-inden-1-yl)-2-(methoxymethyl)-2-methyl-2,3-dihydrobenzofuran-5-carboxamide] it was 21.4 nM.
On the same count and under the same terms, in the case of `CCC1(CC)CC(=O)N([C@@H]2CC(C)(C)Oc3ccc(C(=O)N[C@@H]4c5cc(F)ccc5OC(C)(C)[C@H]4O)cc32)C(=N)N1` [Example 46A, (R)-4-(4,4-diethyl-2-imino-6-oxotetrahydropyrimidin-1(2H)-yl)-N-((3S,4R)-6-fluoro-3-hydroxy-2,2-dimethylchroman-4-yl)-2,2-dimethylchromane-6-carboxamide] it was 130 nM.

Staying with this assay, now noted: Plasmodium falciparum, Erythrocyte, 72 h, 0.7% rings, 2% haematocrit, 72 hours at 37° C., LDH readout of parasite growth.
Molecule `CCC1(CC)CC(=O)N([C@@H]2CCOc3c(C#N)cc(C(=O)N[C@@H]4c5ccccc5OC(C)(C)[C@H]4O)cc32)C(=N)N1` [Example 28A, (R)-8-cyano-4-(4,4-diethyl-2-imino-6-oxotetrahydropyrimidin-1(2H)-yl)-N-((3S,4R)-3-hydroxy-2,2-dimethylchroman-4-yl)chromane-6-carboxamide] displayed an EC50 of 1.8 nM.
In the case of `CCC1(CC)CC(=O)N([C@@H]2CCOc3ccc(C(=O)NC(c4ccccc4)C4CCCCC4)cc32)C(=N)N1` (stereo partly drawn) [Example 200, (4R)-N-[cyclohexyl(phenyl)methyl]-4-(4,4-diethyl-2-imino-6-oxo-hexahydropyrimidin-1-yl)chromane-6-carboxamide], the midpoint of the response, the EC50, lay at 2.9 nM. Compared with the last molecule, the EC50 is about 1.6-fold higher.
Still for that read-out and setting: with `CCC1(CC)CC(=O)N([C@H]2c3cc(C(=O)N[C@@H]4c5ccccc5OC(C)(C)[C@H]4O)ccc3OC[C@H]2C)C(=N)N1` [Example 241, (3S,4R)-4-(4,4-diethyl-2-imino-6-oxo-hexahydropyrimidin-1-yl)-N-[(3S,4R)-3-hydroxy-2,2-dimethyl-chroman-4-yl]-3-methyl-chromane-6-carboxamide] the figure was 0.4 nM.
`CC[C@]1(C)CC(=O)N([C@H]2c3cc(C(=O)N[C@@H]4c5ccccc5C(F)(F)[C@H]4O)ccc3OC[C@@H]2OC)C(=N)N1` [Example 232, (3R,4S)-N-[(1R,2S)-3,3-difluoro-2-hydroxy-indan-1-yl]-4-[(4R)-4-ethyl-2-imino-4-methyl-6-oxo-hexahydropyrimidin-1-yl]-3-methoxy-chromane-6-carboxamide] came in with a 50% effective concentration (EC50) of 21.8 nM.
Still for that read-out and setting: in the case of `CC[C@]1(C)CC(=O)N([C@@H]2CCOc3ccc(C(=O)N[C@@H]4c5cc(Cl)ccc5OC[C@H]4O)cc32)C(=N)N1` [Example 196, (4R)-N-[(3S,4R)-6-chloro-3-hydroxy-chroman-4-yl]-4-[(4R)-4-ethyl-2-imino-4-methyl-6-oxo-hexahydropyrimidin-1-yl]chromane-6-carboxamide] it was 8.6 nM; in that of `CCC1(CC)CC(=O)N(C2CC(C(=O)N(C)C)Oc3ccc(C(=O)N[C@H]4CC(C)(C)Oc5ccccc54)cc32)C(=N)N1` (stereo partly drawn) [Example 302, 4-(4,4-diethyl-2-imino-6-oxo-hexahydropyrimidin-1-yl)-N6-[(4S)-2,2-dimethylchroman-4-yl]-N2,N2-dimethyl-chromane-2,6-dicarboxamide], 1.7 nM.
On the same count and under the same terms, in the case of `CC[C@]1(C)CC(=O)N([C@@H]2CCOc3ccc(C(=O)N[C@@H]4c5cc(Cl)ccc5OC[C@@]4(C)O)cc32)C(=N)N1` [Example 230, (4R)-N-[(3S,4R)-6-chloro-3-hydroxy-3-methyl-chroman-4-yl]-4-[(4R)-4-ethyl-2-imino-4-methyl-6-oxo-hexahydropyimidin-1-yl]chromane-6-carboxamide] it was 2.7 nM; in that of `CC1(C)CC(=O)N([C@@H]2CCOc3ccc(C(=O)N[C@@H]4c5ccccc5OC(C)(C)[C@H]4O)cc32)C(=N)N1` [Example 62A, (R)-N-((3S,4R)-3-hydroxy-2,2-dimethylchroman-4-yl)-4-(2-imino-4,4-dimethyl-6-oxotetrahydropyrimidin-1(2H)-yl)chromane-6-carboxamide], 1.2 nM; in that of `CCC1(CC)CC(=O)N([C@@H]2CCOc3ccc(C(=O)N[C@@H]4CC(C)(C)Oc5ccc(F)cc54)cc32)C(=N)N1` [Example 7B, (R)-4-(4,4-diethyl-2-imino-6-oxotetrahydropyrimidin-1(2H)-yl)-N-((R)-6-fluoro-2,2-dimethylchroman-4-yl)chromane-6-carboxamide], 19 nM.
Same read-out and setting: with `CCC1(CC)CC(=O)N([C@H]2CCS(=O)(=O)c3ccc(C(=O)N[C@@H]4c5ccccc5C[C@@]4(C)O)cc32)C(=N)N1` [Example 261, (4S)-4-(4,4-diethyl-2-imino-6-oxo-hexahydropyrimidin-1-yl)-N-[(1R,2R)-2-hydroxy-2-methyl-indan-1-yl]-1,1-dioxo-3,4-dihydro-2H-thiochromene-6-carboxamide] the figure was 133 nM; with `C[C@H]1Cc2ccc(C(=O)N[C@@H]3c4ccccc4OC(C)(C)[C@H]3O)cc2[C@@H]1N1C(=N)NC(C)(C)CC1=O` [Example 136, (2S,3R)-N-[(3S,4R)-3-hydroxy-2,2-dimethyl-chroman-4-yl]-3-(2-imino-4,4-dimethyl-6-oxo-hexahydropyrimidin-1-yl)-2-methyl-indane-5-carboxamide], 1.3 nM.
The molecule `CCC1(CC)CC(=O)N([C@@H]2CCOc3ccc(C(=O)N[C@H]4CC(C)(C)Oc5ccc(C#N)cc54)cc32)C(=N)N1` [Example 21A, (R)-N-((S)-6-cyano-2,2-dimethylchroman-4-yl)-4-(4,4-diethyl-2-imino-6-oxotetrahydropyrimidin-1(2H)-yl)chromane-6-carboxamide] yielded an EC50 of 0.8 nM.
As to `CCC1(CC)CC(=O)N([C@@H]2CCOc3ccc(C(=O)N4Cc5ccccc5C4)cc32)C(=N)N1` [Example 66A, (R)-6,6-diethyl-2-imino-3-(6-(isoindoline-2-carbonyl)chroman-4-yl)tetrahydropyrimidin-4(1H)-one], the EC50 turned out to be 76 nM.
Regarding `C[C@@H]1C[C@@H](N2C(=N)NC(C)(C)CC2=O)c2cc(C(=O)N[C@@H]3c4ccccc4OC(C)(C)[C@H]3O)ccc21` [Example 138, (1R,3R)-N-[(3S,4R)-3-hydroxy-2,2-dimethyl-chroman-4-yl]-3-(2-imino-4,4-dimethyl-6-oxo-hexahydropyrimidin-1-yl)-1-methyl-indane-5-carboxamide], the concentration giving a half-maximal response (EC50) is 0.9 nM.
Same read-out and setting: in the case of `CCC1(CC)CC(=O)N([C@@H]2CCOc3ccc(C(=O)N[C@H]4c5ccccc5OCC4(C)O)cc32)C(=N)N1` (single isomer, unassigned) [Example 60A] it was 1.3 nM; in that of `CCC1(CC)CC(=O)N([C@@H]2CC(COC)Oc3ccc(C(=O)N[C@@H]4c5ccccc5C[C@H]4O)cc32)C(=N)N1` (single isomer, unassigned) [Example 17A], 2.7 nM.
Consider `CCC1(CC)CC(=O)N([C@@H]2CCOc3ccc(C(=O)NC4c5ccc(C(F)(F)F)cc5CC4N)cc32)C(=N)N1` (stereo partly drawn) [Example 271, (4R)-N-[2-amino-5-(trifluoromethyl)indan-1-yl]-4-(4,4-diethyl-2-imino-6-oxo-hexahydropyrimidin-1-yl)chromane-6-carboxamide], for which a half-maximal response (EC50) required 182 nM. This EC50 is about 67-fold higher than that of the molecule before.
In the case of `CC1(C)CC(=O)N([C@@H]2CC(F)(F)c3ccc(C(=O)N[C@@H]4c5ccccc5OC(C)(C)[C@H]4O)cc32)C(=N)N1` [Example 199, (3R)-1,1-difluoro-N-[(3S,4R)-3-hydroxy-2,2-dimethyl-chroman-4-yl]-3-(2-imino-4,4-dimethyl-6-oxo-hexahydropyrimidin-1-yl)indane-5-carboxamide], the half-maximal effective concentration (EC50) is 1.1 nM. This EC50 lies about 170-fold lower than the previous one.
Still for that read-out and setting: in the case of `CC(C)[C@]1(C)CC(=O)N([C@@H]2CCOc3ccc(C(=O)N[C@@H]4c5ccccc5OC(C)(C)C4O)cc32)C(=N)N1` (stereo partly drawn) [Example 11B, (4R)-N-(3-hydroxy-2,2-dimethylchroman-4-yl)-4-((S)-2-imino-4-isopropyl-4-methyl-6-oxotetrahydropyrimidin-1(2H)-yl)chromane-6-carboxamide] it was 84 nM; in that of `CCC1(CC)CC(=O)N([C@@H]2CCOc3ccc(C(=O)N[C@@H](CO)c4ccccc4)cc32)C(=N)N1` [Example 92, (4R)-4-(4,4-diethyl-2-imino-6-oxo-hexahydropyimidin-1-yl)-N-[(1R)-2-hydroxy-1-phenyl-ethyl]chromane-6-carboxamide], 97.2 nM; in that of `CC1(C)CC(=O)N(C2c3cc(C(=O)N[C@@H]4c5ccccc5C[C@]4(C)O)ccc3OC2(C)C)C(=N)N1` (stereo partly drawn) [Example 108, N-[(1R,2S)-2-hydroxy-2-methyl-indan-1-yl]-3-(2-imino-4,4-dimethyl-6-oxo-hexahydropyrimidin-1-yl)-2,2-dimethyl-3H-benzofuran-5-carboxamide], 74.3 nM.
On to `CCC1(CC)CC(=O)N([C@H]2c3cc(C(=O)N[C@@H]4c5ccccc5OC[C@@]4(C)O)ccc3CC[C@@H]2OC)C(=N)N1` [Example 247, (3S,4S)-4-(4,4-diethyl-2-imino-6-oxo-hexahydropyrimidin-1-yl)-N-[(3S,4R)-3-hydroxy-3-methyl-chroman-4-yl]-3-methoxy-tetralin-6-carboxamide], for which the EC50 came to 4.5 nM.
